# Data published in ChEMBL document CHEMBL5257071, “Total Synthesis and Biological Evaluation of the Anti-Inflammatory (13R,14S,15R)-13-Hydroxy-14-deoxyoxacyclododecindione” (J Nat Prod, 2023).
# Target: Mothers against decapentaplegic homolog 2/homolog 3 (Homo sapiens, UniProt P84022+Q15796)
# Assay: Inhibition of TGF-beta induced Smad2/3 signaling in human HepG2 cells harboring pRL-EF1alpha, (CAGA)9x-MLP-Luc plasmid assessed as luciferase activity incubated for 24 hrs by Promega reporter rene assay
# Assay type: cell-based
row,SMILES,IC50 [nM]
1,C/C1=C\CCC(C)(O)C(C)OC(=O)Cc2c(Cl)c(O)cc(O)c2C1=O (centres undefined),137
2,C/C1=C\C[C@@H](O)[C@H](C)[C@@H](C)OC(=O)Cc2c(Cl)c(O)cc(O)c2C1=O,236
3,C/C1=C\CCC(C)(C)C(C)OC(=O)Cc2c(Cl)c(O)cc(O)c2C1=O (centres undefined),30
4,C/C1=C\CC[C@H](C)[C@@H](C)OC(=O)Cc2c(Cl)c(O)cc(O)c2C1=O,90
